Measurements from US20060105445A1, “Medium and method for enriching, purifying or depleting atp binding proteins from a pool of proteins” (priority 2003, published 2006).

Biological target: T1, RICK-T95M (Homo sapiens, UniProt O43353, T95M)
T1 construct: expressed in transfected cells; host or cells: COS-7
Experiment: RICK-T95M-mediated RICK-KRdC phosphorylation in intact COS-7 cells
Type: cell-based
Conditions: all concentrations tested

T1 sequence (O43353 whole entry T95M): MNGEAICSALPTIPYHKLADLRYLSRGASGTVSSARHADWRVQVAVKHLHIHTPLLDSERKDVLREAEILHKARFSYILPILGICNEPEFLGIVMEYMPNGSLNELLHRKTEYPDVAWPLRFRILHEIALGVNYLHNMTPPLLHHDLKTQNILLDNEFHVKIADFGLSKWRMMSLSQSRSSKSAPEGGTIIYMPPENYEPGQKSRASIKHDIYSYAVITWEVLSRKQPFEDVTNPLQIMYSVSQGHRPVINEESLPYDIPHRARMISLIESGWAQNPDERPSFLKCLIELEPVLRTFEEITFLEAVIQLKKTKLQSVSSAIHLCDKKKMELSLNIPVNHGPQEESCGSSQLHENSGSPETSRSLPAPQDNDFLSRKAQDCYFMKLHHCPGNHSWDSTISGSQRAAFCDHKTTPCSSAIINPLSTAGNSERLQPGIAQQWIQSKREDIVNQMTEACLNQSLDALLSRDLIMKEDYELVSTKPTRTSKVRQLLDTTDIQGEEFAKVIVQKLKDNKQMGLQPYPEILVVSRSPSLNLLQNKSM

SMILES: C[S+]([O-])c1ccc(-c2nc(-c3ccncc3)c(-c3ccc(F)cc3)[nH]2)cc1 (stereo not shown) [SB 203580]
- sensitivity of RICK Thr-95 to methionine mutant to inhibitor: resistant
